In patent US11738064B2, “Pharmaceutical composition for preventing and treating eye diseases, containing as active ingredient, fusion protein in which tissue-penetrating peptide and anti-vascular endothelial growth factor preparation are fused” (ILDONG PHARM CO., LTD., priority 2015, dated 2023):

Columns and labels:
VEGF-A = target: T1, VEGF-A (Homo sapiens, UniProt P15692); settings: designed property, versus ranibizumab; cited from earlier work
T1 sequence (P15692 207-395): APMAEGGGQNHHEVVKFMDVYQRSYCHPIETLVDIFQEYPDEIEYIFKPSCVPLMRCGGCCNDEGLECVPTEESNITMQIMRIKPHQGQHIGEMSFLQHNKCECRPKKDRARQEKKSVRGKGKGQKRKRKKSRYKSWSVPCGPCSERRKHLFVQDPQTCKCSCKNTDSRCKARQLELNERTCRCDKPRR

[1] = cited from earlier work
[2] = tested on: retinal neovascularization; assay: Oxygen-induced retinopathy (OIR) model, retinal neovascularization (isolectin B4, tufts); format: in vivo, C57BL/6 mice; settings: 10 μg/eye intraocular; FIG. 12B
Experimental: (§1) Mice burn by crossbreeding of 7- to 8-week old C57BL/6 purchased from Koatech were used as experimental animals. On day 7 after birth, mice (postnatal day 7, P7) were placed in an oxygen chamber, and the oxygen concentration in the chamber was adjusted and maintained at 75% (hyperoxia) for 5 days (P7 to P11). The illumination in the laboratory was turned on or off every 12 hours and the temperature was maintained at 24±2° C. The mice were fed with free access to feed and drinking water. After 5 days, the mice were exposed to inner air (normoxia) out of the chamber for 5 days (P12-P17) to induce retinal angiogenesis. For drug administration, the mice were randomly divided into five groups (10 mice per group) immediately after the exposure to normoxia on P12, as shown in Table 7. Drugs were administered intraocularly at concentrations appropriate for respective groups using Hamilton syringe (Hamilton, USA). The same amount of vehicle was administered to the OIR group, and 10 μg/eye of ranibizumab was administered as control drug. Subjects with surgical damage caused by drug administration or subjects with lens opacities or the like were excluded from subsequent experiment procedures.
In addition, the extent of neovascularization in the retina was also evaluated. […]

[3] = tested on: corneal neovascularization; assay: Corneal neovascularization resistance model; format: in vivo, C57BL/6 mice; settings: eye drops for 10 days from 10 days after alkaline burn; FIG. 7B
Experimental: The 6-week old female C57BL/6 mice were used. After anesthesia (Zoletil 40 mg/kg+Rompun 5 mg/kg, IP), the NaOH filter paper was placed on the left eye cornea to induce an alkaline burn for 30 seconds, followed by sufficient washing with 40 ml of PBS, thereby constructing corneal neovascularization animal models. […] Each drug was administered through eye drops at a concentration of 5 mg/ml with 5 μl each time, four times a day for 5 days. After the completion of the administration, the eyeballs were extracted, immersed and fixed in 4% paraformaldehyde solution for one hour, and washed with PBS, and then the cornea was isolated using a dissecting microscope. The isolated cornea was additionally fixed in a 4% paraformaldehyde solution for 12 hours. The fixed cornea was washed with PBS, and subjected to reaction in a blocking buffer (PBS, 0.3% BSA, 0.1% Triton X100) at room temperature for 2 hours. A primary antibody (BD Pharmingen) specific to PECAM-1 (CD31) as a vascular endothelial marker and a primary antibody (Millipore) specific to NG-2 as a pericyte marker were reacted overnight in a refrigerator, and secondary fluorescent antibodies (Alexa Fluor488, Alexa Fluor594, Life Technologies) were reacted at room temperature for 4 hours for tissue staining. […]

[4] = tested on: choroidal neovascularization; assay: Laser-induced choroidal neovascularization (CNV) model; format: in vivo, Brown Norway (BN) rats; settings: 100 μg/eye intraocular, 10 days after administration; FIG. 10B
Experimental: Seven-week old male Brown Norway (BN) rats (SLC Japan, Tokyo, Japan) were acclimated for one week, and then anesthetized by peritoneal injection of pentobarbital sodium (Hanlim Pharm, 25 mg/kg). Thereafter, the pupil was dilated with 1% tropicamide eye drops, and then six photocoagulation spots were formed around the optic nerve head using a diode laser (wavelength, 532 nm; diameter, 100 μm; power, 150 mW; time period, 0.1 sec). The destruction of Bruch's membrane was verified by the formation of characteristic bubbles. The eyeballs with hemorrhage or no bubbles were excluded from the subsequent experimental procedures. Drugs were administered intraocularly at concentrations appropriate for respective groups using Hamilton syringe (Hamilton, USA). The same amount of vehicle was administered to the CNV group, and 100 μg/eye of ranibizumab was administered as control drug. Subjects with surgical damage caused by drug administration or subjects with lens opacities or the like were excluded from subsequent experimental procedures.
The degree of choroidal neovascularization was evaluated 10 days after drug administration. The eyeball of each rat was extracted, and then incised at a region adjacent to the cornea and sclera under a microscope. […] The sizes of subretinal neovascular areas were analyzed using Image J software (NIH, USA).

[5] = Ex-vivo ocular penetration model, extracted eyeballs immersed in FITC-conjugated protein; format: in vitro ADME, C57BL/6 mouse; settings: confocal microscope; FIG. 8E
Experimental: The eyeballs were fixed at 4° C. for 4 hours using Davidson's solution (glacial acetic acid:ethyl alcohol:neutralized formalin:distilled water=1:3:2:3), and then the anterior tissue of the conjunctiva was partially cut with scissors, and the retinal metaplasia was minimized in a paraffin slide preparation step. After overnight fixation at 4° C. using 10% (v/v) formalin solution, moisture was removed from the tissues by increasing the concentration of alcohol from low to high concentration using an automatic infiltration machine, followed by transparency with xylene and then paraffin penetration. The paraffin penetration-completed tissue was placed in a base mold to make a paraffin block, and 4 sections were prepared using a microtome. The paraffin sections were unfolded to be attached to slides pre-coated with albumin, poly-L-lysine, and saline in a floating constant-temperature water bath. The tissue slides were deparaffinized and then directly mounted, and then FITC was observed using a confocal microscope to investigate the ocular tissue penetration and distribution.
Thereafter, while unconjugated FITC was removed using PD-10 desalting column, the buffer was changed with PBS, and then the purified product was quantified, and used as a sample for efficacy evaluation.

macular degeneration = settings: cited from earlier work
vascular leakage = assay: Oxygen-induced retinopathy (OIR) model, vascular leakage (dextran fluorescence extravasation); format: in vivo, C57BL/6 mice; settings: 10 μg/eye intraocular on P12, evaluated P17; FIG. 11A
Experimental: as §1
The degree of retinal edema was evaluated on day 17 after birth. […] The amount of fluorescence extravasated out of vessels was quantitatively analyzed using Image J.

[6] = half-dose (250 μg) dropped 6 times at 2 hour intervals in rabbits; cited from earlier work
neuropilin 1 (NRP 1) = assay: SPR (Biacore 2000) assay of binding ability to neuropilin 1 receptor; settings: Table 4, receptor NRP 1, read-out: Affinity, KD
Experimental: First, the affinity to a neuropilin receptor was performed on neuropilin 1 (NRP 1). Specifically, surface plasmon resonance (SPR) was performed using Biacore 2000 (GE Healthcare) in order to investigate the binding ability of TPP to the neuropilin 1 domain. Specifically, each neuropilin 1 domain was diluted in 10 mM Na-acetate buffer (pH 4.0), and fixed on CMS sensor chip (GE Healthcare, USA) at about 1,000 response units (RU). […] After the association/dissociation analysis, the CMS chip was regenerated by allowing buffer (20 mM NaOH, 1M NaCl, pH 10.0) to flow at a flow rate of 30 μl/min for 1 minute.
After the Biacore CMS chip was activated with EDC/NHS mixture, target protein NRP1 was diluted in a fixing buffer (10 mM sodium acetate, pH 5.5), and fixed to final 79 Ru through calculation at Rmax: 200.

Chain of neuropilin 1 (NRP 1) (O14786 273-586 limits assumed): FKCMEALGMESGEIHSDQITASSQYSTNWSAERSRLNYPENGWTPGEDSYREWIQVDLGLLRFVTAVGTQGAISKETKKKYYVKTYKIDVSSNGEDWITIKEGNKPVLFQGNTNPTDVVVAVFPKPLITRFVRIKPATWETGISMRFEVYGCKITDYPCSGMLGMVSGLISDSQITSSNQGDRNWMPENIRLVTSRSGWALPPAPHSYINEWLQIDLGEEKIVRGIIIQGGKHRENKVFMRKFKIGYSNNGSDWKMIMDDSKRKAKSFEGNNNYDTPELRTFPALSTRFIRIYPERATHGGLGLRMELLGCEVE

aflibercept
increase in binding ability to VEGF-A (VEGF-A): 100 fold

conbercept
bioavailability at the time of applying eye drops [1]: less than 5%

ranibizumab
degree of neovascularization relative to vehicle group, in words [2]: the same degree of neovascularization | neovessel reducing efficacy, in words [3]: no significant efficacy | inhibition of (neo)vascularization in comparison with the vehicle group [4]: about 31% | distribution in cross-section of the ocular retinal tissue [5]: mostly present near the sclera | patients with macular degeneration showing response (macular degeneration; at the time of development): about 90% | responding patients showing a therapeutic effect, such as eyesight improvement (macular degeneration; human, in vivo): 30% | vascular leakage compared to the vehicle group (vascular leakage): somewhat reduced | time to reach the retinal tissue after eye drops [6]: 3 to 7 days

B1: Sema3A: secreted class 3 semaphorin ligand binding to neuropilin (protein)
chain: NYQNGKNNVPRLKLSYKEMLESNNVITFNGLANSSSYHTFLLDEERSRLYVGAKDHIFSFDLVNIKDFQKIVWPVSYTRRDECKWAGKDILKECANFIKVLKAYNQTHLYACGTGAFHPICTYIEIGHHPEDNIFKLENSHFENGRGKSPYDPKLLTASLLIDGELYSGTAADFMGRDFAIFRTLGHHHPIRTEQHDSRWLNDPKFISAHLISESDNPEDDKVYFFFRENAIDGEHSGKATHARIGQICKNDFGGHRSLVNKWTTFLKARLICSVPGPNGIDTHFDELQDVFLMNFKDPKNPVVYGVFTTSSNIFKGSAVCMYSMSDVRRVFLGPYAHRDGPNYQWVPYQGRVPYPRPGTCPSKTFGGFDSTKDLPDDVITFARSHPAMYNPVFPMNNRPIVIKTDVNYQFTQIVVDRVDAEDGQYDVMFIGTDVGTVLKVVSIPKETWYDLEEVLLEEMTVFREPTAISAMELSTKQQQLYIGSTAGVAQLPLHRCDIYGKACAECCLARDPYCAWDGSACSRYFPTAKRRTRRQDIRNGDPLTHCSDLHHDNHHGHSPEERIIYGVENSSTFLECSPKSQRALVYWQFQRRNEERKEEIRVDDHIIRTDQGLLLRSLQQKDSGNYLCHAVEHGFIQTLLKVTLEVIDTEHLEELLHKDDDGDGSKTKEMSNSMTPSQKVWYRDFMQLINHPNLNTMDEFCEQVWKRDRKQRRQRPGHTPGNSNKWKHLQENKKGRNRRTHEFERAPRSV
Kd (neuropilin 1 (NRP 1)): 27.9 nM
